# According to ChEMBL document CHEMBL4673379 (ACS Med Chem Lett, 2021):
# Key:
# [1] = system: Vero; experiment: Cytotoxicity against African green monkey Vero cells assessed as reduction in cell growth by coulter counter analysis; type: cell-based; settings: chlorocebus sabaeus
# [2] = Cytotoxicity against African green monkey Vero cells assessed as alteration in cell morphology by microscopic analysis; type: cell-based; settings: chlorocebus sabaeus
# [3] = system: SARS-CoV-2; experiment: Antiviral activity against SARS-CoV-2 UC-1075 infected in African green monkey Vero cells assessed as reduction in virus plaque formation measured on day 5 post-viral infection by microscopic analysis; type: functional, organism-based; settings: Severe acute respiratory syndrome coronavirus 2, UC-1075, Vero, 120 h
# [4] = system: SARS-CoV-2; experiment: Antiviral activity against SARS-CoV-2 UC-1074 infected in African green monkey Vero cells assessed as reduction in virus plaque formation measured on day 5 post-viral infection by microscopic analysis; type: functional, organism-based; settings: Severe acute respiratory syndrome coronavirus 2, UC-1074, Vero, 120 h
# [5] = system: Human alphaherpesvirus 3; experiment: Antiviral activity against thymidine kinase positive Varicella zoster virus OKA infected in human HEL cells assessed as reduction in virus plaque formation measured on day 5 post-viral infection; type: functional, organism-based; settings: Human alphaherpesvirus 3, OKA, 120 h
# [6] = system: Human alphaherpesvirus 3; experiment: Antiviral activity against thymidine kinase deficient Varicella zoster virus 07-1 infected in human HEL cells assessed as reduction in virus plaque formation measured on day 5 post-viral infection; type: functional, organism-based; settings: Human alphaherpesvirus 3, 07-1, HEL, 120 h
# [7] = system: Human betaherpesvirus 5; experiment: Antiviral activity against Human cytomegalovirus AD169 infected in human HEL cells assessed as reduction in virus plaque formation measured on day 6 to 7 post-viral infection; type: functional, cell-based; settings: Human betaherpesvirus 5, AD169, HEL, 144 h
# [8] = Cytotoxicity against human HEL cells assessed as alteration in cell morphology incubated for 3 days by microscopic analysis; type: cell-based; settings: time 3 day
# [9] = system: Human betaherpesvirus 5; experiment: Antiviral activity against Human cytomegalovirus Davis infected in human HEL cells assessed as reduction in virus plaque formation measured on 6 to 7 post-viral infection; type: functional, cell-based; settings: Human betaherpesvirus 5, Davis
# [10] = Selectivity index, ratio of CC50 for African green monkey Vero cells to EC50 for antiviral activity against SARS-CoV-2 UC-1075 infected in African green monkey Vero cells; type: toxicity; settings: read-out: Ratio CC50/EC50
# [11] = Selectivity index, ratio of CC50 for human HEL cells to EC50 for antiviral activity against thymidine kinase positive Varicella zoster virus OKA infected in human HEL cells; type: toxicity, cell-based; settings: read-out: Ratio CC50/EC50
# [12] = Selectivity index, ratio of CC50 for human HEL cells to EC50 for antiviral activity against thymidine kinase deficient Varicella zoster virus 07-1 infected in human HEL cells; type: toxicity, cell-based; settings: read-out: Ratio CC50/EC50
# [13] = system: SARS-CoV-2; experiment: Antiviral activity against SARS-CoV-2 infected in African green monkey Vero cells assessed as reduction in virus plaque formation measured on day 5 post-viral infection by microscopic analysis relative to remdesivir; type: functional, Severe acute respiratory syndrome coronavirus 2; settings: time 5 day
# [14] = system: HEL; experiment: Cytotoxicity against human HEL cells assessed as reduce in cell growth incubated for 3 days by coulter counter analysis; type: cell-based; settings: 72 h, time 3 day
# [15] = system: Zika virus; experiment: Antiviral activity against Zika virus infected in human RPE cells assessed as inhibition of virus-induced cytopathic effect measured at 48 hrs post-viral infection by CellTiter Glo assay; type: functional, organism-based; settings: HRPE
# [16] = system: Enterovirus C; experiment: Antiviral activity against Polio virus Mahoney infected in human HeLa cells assessed as inhibition of viral replication incubated for 2 days by luminescence analysis; type: functional, organism-based; settings: 48 h
# [17] = system: Influenza A virus; experiment: Antiviral activity against Influenza A virus (A/Puerto Rico/8/34(H1N1)) expressing NS116-GFP infected in human RPE cells assessed as inhibition of viral replication measured after 24 hrs by luminescence based assay; type: functional, organism-based; settings: A/Puerto Rico/8/1934(H1N1), HRPE
# [18] = system: Human immunodeficiency virus 1; experiment: Antiviral activity against HIV-1 infected in HEK293T cells assessed as inhibition of viral replication treated with compound 2 hrs prior to viral infection and measured after 24 hrs by flow cytometry; type: functional, organism-based; settings: Human immunodeficiency virus 1, HEK-293T
# [19] = system: Hepatitis C virus; experiment: Antiviral activity against Hepatitis C virus assessed as inhibition of viral replication incubated for 3 days by Renilla luciferase based assay; type: functional, organism-based, Hepacivirus hominis; settings: 72 h
# [20] = system: Middle East respiratory syndrome-related coronavirus; experiment: Antiviral activity against MERS-CoV Hu/Jordan-N3/2012 infected in African green monkey Vero E6 cells assessed as inhibition of viral replication treated for 1 hr prior to viral infection and measured after 48 hrs by ELISA; type: functional, organism-based; settings: Hu/Jordan-N3/2012, Vero C1008
# [21] = system: rhinovirus A1B; experiment: Antiviral activity against Human rhinovirus 1B infected in human HeLa cells assessed as inhibition of virus-induced cytopathicity measured after 2 days by SRB method; type: functional, organism-based; settings: Rhinovirus A, 48 h
# [22] = system: SARS-CoV-2; experiment: Antiviral activity against SARS-CoV-2 infected in African green monkey Vero E6 cells assessed as reduction in viral RNA copy number incubated for 24 hrs by real time RT-PCR analysis; type: functional, organism-based; settings: Severe acute respiratory syndrome coronavirus 2, Vero C1008, 24 h
Structure (SMILES),CC50 [1] [nM],MCC [2] [µM],EC50 [3] [nM],EC50 [4] [nM],EC50 [5] [nM],EC50 [6] [nM],EC50 [7] [nM],MCC at 72 h [8] [µM],EC50 [9] [nM],CC50 [14] [nM],also measured
CCC(CC)COC(=O)[C@H](C)N[P@](=O)(OC[C@H]1O[C@@](C#N)(c2ccc3c(N)ncnn23)[C@H](O)[C@@H]1O)Oc1ccccc1,> 40000,> 40,1520,5800,–,–,–,–,–,–,–
CO[C@]1(CO)O[C@@H](n2ccc(=O)[nH]c2=O)C(F)(F)[C@@H]1O,–,–,–,–,> 100000,> 100000,> 100000,> 100,> 100000,–,–
Nc1ccn([C@@H]2O[C@](F)(CO)[C@@H](O)C2(F)F)c(=O)n1,260,0.16,96,360,42,166,815,20,930,110,selectivity ratio [10]: 2; selectivity ratio [11]: 2; selectivity ratio [12]: < 1; Ratio [13]: 20
C[C@H](NP(=O)(OC[C@@]1(F)O[C@@H](n2ccc(N)nc2=O)C(F)(F)[C@@H]1O)Oc1ccccc1)C(=O)OCc1ccccc1 (stereo not given in full),1440,4,730,≥ 2400,2320,2840,15500,> 100,4000,84400,selectivity ratio [10]: < 2; selectivity ratio [11]: 36; selectivity ratio [12]: 29; Ratio [13]: 10
O=c1ccn([C@@H]2O[C@](F)(CO)[C@@H](O)C2(F)F)c(=O)[nH]1,–,–,–,–,> 100000,> 100000,> 100000,> 100,> 100000,–,–
CO[C@]1(COP(=O)(N[C@@H](C)C(=O)OCc2ccccc2)Oc2ccccc2)O[C@@H](n2ccc(N)nc2=O)C(F)(F)[C@@H]1O (stereo not given in full),≥ 93600,≥ 100,≥ 55100,> 100000,> 100000,> 100000,> 100000,> 100,> 100000,–,–
CO[C@]1(CO)O[C@@H](n2ccc(N)nc2=O)C(F)(F)[C@@H]1O,> 100000,> 100,≥ 86200,–,> 100000,> 100000,> 100000,> 100,> 100000,–,–
Nc1nc2c(ncn2COCCO)c(=O)[nH]1 [ACYCLOVIR],–,–,–,–,–,–,–,> 440,–,424000,–
O=c1[nH]c(=O)n([C@H]2C[C@H](O)[C@@H](CO)O2)cc1/C=C/Br [BRIVUDINE],–,–,–,–,36,6040,–,> 300,–,> 300000,selectivity ratio [11]: > 8330; selectivity ratio [12]: > 49
Nc1ccn(C[C@@H](CO)OCP(=O)(O)O)c(=O)n1 [CIDOFOVIR],–,–,–,–,–,–,650,300,340,–,–
C[C@H](NP(=O)(OC[C@H]1O[C@@H](n2ccc(N)nc2=O)C(F)(F)[C@@H]1O)Oc1ccccc1)C(=O)OCc1ccccc1 (stereo not given in full) [FOSGEMCITABINE PALABENAMIDE],20,0.048,> 12.8,> 32,74,89,66,> 100,32,340,selectivity ratio [11]: 4; selectivity ratio [12]: 3
Nc1nc(O)c2ncn(COC(CO)CO)c2n1 [GANCICLOVIR],–,–,–,–,–,–,–,350,–,–,–
Nc1ccn([C@@H]2O[C@H](CO)[C@@H](O)C2(F)F)c(=O)n1 [GEMCITABINE],4.3,0.008,> 1.6,> 3.2,28,54,74,20,53,3.6,EC50 [15]: 10 nM; IC50 [16]: 300 nM; EC50 [17]: 68 nM; EC50 [18]: 16.3 nM; EC50 [19]: 12 nM; EC50 [20]: 1220 nM; EC50 [21]: 810 nM; EC50 [22]: 1240 nM
CCN(CCO)CCCC(C)Nc1ccnc2cc(Cl)ccc12 (stereo not given) [HYDROXYCHLOROQUINE],36900,100,1740,8100,–,–,–,–,–,–,–
